{"source": "patent US6914045B2", "about": "“Glycopeptide antibiotics” (Wyeth Holdings Corporation, priority 2001, dated 2005)", "test_in_all_cases": "in vitro antibacterial evaluation, MIC by broth dilution", "assay_type_in_all_cases": "cell-based", "key": {"Enterococcus sp.": {"test_system": "Enterococcus sp.", "settings": "broth dilution, 18 hours at 35° C.", "in_short": "(§1)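 Broth dilution per NCCLS standard M7-A2 in Muller-Hinton II […], with an inoculum of 5×10^5 CFU/mL and antibiotic spanning 64-0.06 μg/mL. The MIC is the lowest concentration that inhibits growth of the organism.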"}, "Escherichia coli": {"test_system": "Escherichia coli", "settings": "18 hours at 35° C.", "in_short": "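Step 1: dilute antibiotic across 64-0.06 μg/mL in Muller-Hinton II […]. Step 2: inoculate at 5×10^5 CFU/mL.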"}, "Staphylococcus sp.": {"test_system": "Staphylococcus sp.", "settings": "broth dilution, 18 hours at 35° C.", "in_short": "as §1"}, "Streptococcus sp.": {"test_system": "Streptococcus sp.", "settings": "broth dilution, 18 hours at 35° C.", "in_short": "as §1"}}, "data": [{"smiles": "CC(C)C(=O)OCC1OC(OC2C(CO)OC(Oc3ccc(CC4NC(=O)C(Cc5ccccc5)NC(=O)CNC(=O)C(CO)NC(=O)C(C(O)C5CNC(=N)N5C5OC(CO)C(O)C(O)C5O)NC(=O)C(C(O)C5CNC(=N)N5)NC4=O)cc3)C(O)C2O)C(O)C(O)C1O", "note": "(centres unmarked) [Example 283a, Cyclo[glycylphenylalanyl-O-[4-O-[6-O-(2-methylpropanoyl)-hexopyranosyl]hexopyranosyl]tyrosyl-3-(2-iminoimidazolidin-4-yl)seryl-3-(3-hexopyranosyl-2-iminoimidazolidin-4-yl)seryliseryl]]", "values": [{"measurement": "MIC Enterococcus avium (GC 4558)", "setting": "Enterococcus sp.; Enterococcus avium (GC 4558)", "result": 128, "unit": "µg/mL"}, {"measurement": "MIC Enterococcus faecalis (ATCC 29212)", "setting": "Enterococcus sp.; Enterococcus faecalis (ATCC 29212)", "result": ">128", "unit": "µg/mL"}, {"measurement": "MIC Enterococcus faecalis (GC 4553)", "setting": "Enterococcus sp.; Enterococcus faecalis (GC 4553)", "result": ">128", "unit": "µg/mL"}, {"measurement": "MIC Enterococcus faecalis (GC 4554)", "setting": "Enterococcus sp.; Enterococcus faecalis (GC 4554)", "result": ">128", "unit": "µg/mL"}, {"measurement": "MIC Enterococcus faecalis (GC 6189)", "setting": "Enterococcus sp.; Enterococcus faecalis (GC 6189)", "result": ">128", "unit": "µg/mL"}, {"measurement": "MIC Enterococcus faecium (GC 2243)", "setting": "Enterococcus sp.; Enterococcus faecium (GC 2243)", "result": ">128", "unit": "µg/mL"}, {"measurement": "MIC Enterococcus faecium (GC 4556)", "setting": "Enterococcus sp.; Enterococcus faecium (GC 4556)", "result": ">128", "unit": "µg/mL"}, {"measurement": "MIC Enterococcus faecium (GC 4557)", "setting": "Enterococcus sp.; Enterococcus faecium (GC 4557)", "result": 64, "unit": "µg/mL"}, {"measurement": "MIC Enterococcus faecalis (ATCC 29212)", "setting": "Enterococcus sp.; strain ATCC 29212", "result": ">128", "unit": "µg/mL"}, {"measurement": "MIC Enterococcus faecalis (GC 2242)", "setting": "Enterococcus sp.; strain GC 2242", "result": 128, "unit": "µg/mL"}, {"measurement": "MIC Enterococcus faecium (GC 2243)", "setting": "Enterococcus sp.; strain GC 2243", "result": ">128", "unit": "µg/mL"}, {"measurement": "MIC Enterococcus faecalis (GC 2691)", "setting": "Enterococcus sp.; strain GC 2691", "result": ">128", "unit": "µg/mL"}, {"measurement": "MIC Enterococcus faecalis (GC 3059)", "setting": "Enterococcus sp.; strain GC 3059", "result": ">128", "unit": "µg/mL"}, {"measurement": "MIC Enterococcus faecalis (GC 4552)", "setting": "Enterococcus sp.; strain GC 4552", "result": ">128", "unit": "µg/mL"}, {"measurement": "MIC Enterococcus faecalis (GC 4553)", "setting": "Enterococcus sp.; strain GC 4553", "result": ">128", "unit": "µg/mL"}, {"measurement": "MIC Enterococcus faecalis (GC 4554)", "setting": "Enterococcus sp.; strain GC 4554", "result": ">128", "unit": "µg/mL"}, {"measurement": "MIC Enterococcus faecium (GC 4556)", "setting": "Enterococcus sp.; strain GC 4556", "result": ">128", "unit": "µg/mL"}, {"measurement": "MIC Enterococcus faecium (GC 4557)", "setting": "Enterococcus sp.; strain GC 4557", "result": 64, "unit": "µg/mL"}, {"measurement": "MIC Enterococcus avium (GC 4558)", "setting": "Enterococcus sp.; strain GC 4558", "result": 128, "unit": "µg/mL"}, {"measurement": "MIC Enterococcus faecalis (GC 6189)", "setting": "Enterococcus sp.; strain GC 6189", "result": ">128", "unit": "µg/mL"}, {"measurement": "MIC Escherichia coli (ATCC 25922)", "setting": "Escherichia coli; Escherichia coli (ATCC 25922)", "result": 128, "unit": "µg/mL"}, {"measurement": "MIC Escherichia coli (GC 4559)", "setting": "Escherichia coli; Escherichia coli (GC 4559)", "result": ">128", "unit": "µg/mL"}, {"measurement": "MIC Escherichia coli (GC 4560)", "setting": "Escherichia coli; Escherichia coli (GC 4560)", "result": 32, "unit": "µg/mL"}, {"measurement": "MIC Coagulase Negative Staphylococcus (GC 4547)", "setting": "Staphylococcus sp.", "result": 64, "unit": "µg/mL"}, {"measurement": "MIC Coagulase Negative Staphylococcus (GC 4548)", "setting": "Staphylococcus sp.", "result": 64, "unit": "µg/mL"}, {"measurement": "MIC Coagulase Negative Staphylococcus (GC 4549)", "setting": "Staphylococcus sp.", "result": 32, "unit": "µg/mL"}, {"measurement": "MIC Coagulase Negative Staphylococcus (GC 4551)", "setting": "Staphylococcus sp.", "result": 64, "unit": "µg/mL"}, {"measurement": "MIC Staphylococcus aureus (ATCC 29213)", "setting": "Staphylococcus sp.", "result": 64, "unit": "µg/mL"}, {"measurement": "MIC Staphylococcus aureus (GC 1131)", "setting": "Staphylococcus sp.", "result": 64, "unit": "µg/mL"}, {"measurement": "MIC Staphylococcus aureus (GC 3051)", "setting": "Staphylococcus sp.", "result": 64, "unit": "µg/mL"}, {"measurement": "MIC Staphylococcus aureus (GC 3053)", "setting": "Staphylococcus sp.", "result": 128, "unit": "µg/mL"}, {"measurement": "MIC Staphylococcus aureus (GC 4541)", "setting": "Staphylococcus sp.", "result": 64, "unit": "µg/mL"}, {"measurement": "MIC Staphylococcus aureus (GC 4542)", "setting": "Staphylococcus sp.", "result": 64, "unit": "µg/mL"}, {"measurement": "MIC Staphylococcus aureus (GC 4544)", "setting": "Staphylococcus sp.", "result": 64, "unit": "µg/mL"}, {"measurement": "MIC Staphylococcus aureus (GC 4545)", "setting": "Staphylococcus sp.", "result": 64, "unit": "µg/mL"}, {"measurement": "MIC Staphylococcus aureus-SMITH (GC 4543)", "setting": "Staphylococcus sp.", "result": 64, "unit": "µg/mL"}, {"measurement": "MIC Staphylococcus haemolyticus (GC 4546)", "setting": "Staphylococcus sp.", "result": 64, "unit": "µg/mL"}, {"measurement": "MIC Staphylococcus aureus (ATCC 29213)", "setting": "Staphylococcus sp.; strain ATCC 29213", "result": 64, "unit": "µg/mL"}, {"measurement": "MIC Staphylococcus aureus (GC 1131)", "setting": "Staphylococcus sp.; strain GC 1131", "result": 64, "unit": "µg/mL"}, {"measurement": "MIC Staphylococcus aureus (GC 3051)", "setting": "Staphylococcus sp.; strain GC 3051", "result": 64, "unit": "µg/mL"}, {"measurement": "MIC Staphylococcus aureus (GC 3053)", "setting": "Staphylococcus sp.; strain GC 3053", "result": 128, "unit": "µg/mL"}, {"measurement": "MIC Staphylococcus aureus (GC 4541)", "setting": "Staphylococcus sp.; strain GC 4541", "result": 64, "unit": "µg/mL"}, {"measurement": "MIC Staphylococcus aureus (GC 4542)", "setting": "Staphylococcus sp.; strain GC 4542", "result": 64, "unit": "µg/mL"}, {"measurement": "MIC Staphylococcus aureus (GC 4544)", "setting": "Staphylococcus sp.; strain GC 4544", "result": 64, "unit": "µg/mL"}, {"measurement": "MIC Staphylococcus aureus (GC 4545)", "setting": "Staphylococcus sp.; strain GC 4545", "result": 64, "unit": "µg/mL"}, {"measurement": "MIC Staphylococcus haemolyticus (GC 4546)", "setting": "Staphylococcus sp.; strain GC 4546", "result": 64, "unit": "µg/mL"}, {"measurement": "MIC Coagulase Negative Staphylococcus (GC 4547)", "setting": "Staphylococcus sp.; strain GC 4547", "result": 64, "unit": "µg/mL"}, {"measurement": "MIC Coagulase Negative Staphylococcus (GC 4548)", "setting": "Staphylococcus sp.; strain GC 4548", "result": 64, "unit": "µg/mL"}, {"measurement": "MIC Coagulase Negative Staphylococcus (GC 4549)", "setting": "Staphylococcus sp.; strain GC 4549", "result": 32, "unit": "µg/mL"}, {"measurement": "MIC Coagulase Negative Staphylococcus (GC 4551)", "setting": "Staphylococcus sp.; strain GC 4551", "result": 64, "unit": "µg/mL"}, {"measurement": "MIC Staphylococcus aureus-SMITH (GC 4543)", "setting": "Staphylococcus sp.; strain SMITH GC 4543", "result": 64, "unit": "µg/mL"}, {"measurement": "MIC Streptococcus pneumoniae (ATCC 6301)", "setting": "Streptococcus sp.; strain ATCC 6301", "result": 16, "unit": "µg/mL"}, {"measurement": "MIC Streptococcus pneumoniae (GC 1894)", "setting": "Streptococcus sp.; strain GC 1894", "result": 16, "unit": "µg/mL"}, {"measurement": "MIC Streptococcus pyogenes (GC 4563)", "setting": "Streptococcus sp.; strain GC 4563", "result": 64, "unit": "µg/mL"}, {"measurement": "MIC Streptococcus agalactiae (GC 4564)", "setting": "Streptococcus sp.; strain GC 4564", "result": 64, "unit": "µg/mL"}, {"measurement": "MIC Streptococcus pneumoniae (GC 4565)", "setting": "Streptococcus sp.; strain GC 4565", "result": 16, "unit": "µg/mL"}]}]}
